From ChEMBL document CHEMBL5316327, “Design and Synthesis of Orally Active Quinolyl Pyrazinamides as Sigma 2 Receptor Ligands for the Treatment of Pancreatic Cancer” (J Med Chem, 2023)
pIC50, pKi: −log10 of the molar value. Activity calls are given as the source filed them. The calls are words filed in the database; no cut-off is given here.

Legend:
MIA PaCa-2 [1] = experiment: Induction of apoptosis in human MIA PaCa-2 cells assessed as early apoptotic cells at 5.0 uM measured after 48 hrs by Annexin V-Alexa Fluor 488/propidium iodide staining based flow cytometry (reference value: 4.11%); assay type: functional
[2] = AUC (0 to infinity) in CD-1 mouse plasma at 20 mg/kg, po; assay type: ADME, organism-based; set-up: dose 20 mg/kg, route po
[3] = AUC (0 to infinity) in CD-1 mouse plasma at 10 mg/kg, iv; assay type: ADME, organism-based; set-up: dose 10 mg/kg, route iv
[4] = target: Sigma intracellular receptor 2 (Homo sapiens, UniProt Q5BJF2); experiment: Displacement of [3H][…]ditolylguanidine from human sigma 2 receptor transfected in human HEK293T cells assessed as inhibition constant by radioligand competition binding assay; assay type: cell-based
Chain of Sigma intracellular receptor 2 (Q5BJF2 whole entry): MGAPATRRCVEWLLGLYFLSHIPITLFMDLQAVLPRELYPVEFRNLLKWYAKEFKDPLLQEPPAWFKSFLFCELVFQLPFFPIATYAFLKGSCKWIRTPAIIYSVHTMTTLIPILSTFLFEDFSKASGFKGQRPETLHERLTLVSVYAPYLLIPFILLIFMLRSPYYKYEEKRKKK

[5] = Apparent oral clearance in CD-1 mouse plasma at 20 mg/kg, po; assay type: ADME, organism-based
Panc02 [6] = experiment: cells; conditions: Mus musculus, Panc02, 72 h
Histamine H2 receptor = Histamine H2 receptor (Homo sapiens, UniProt P25021); experiment: Binding affinity to histamine H2 receptor (unknown origin) assessed as inhibition constant
Chain of Histamine H2 receptor (P25021 whole entry): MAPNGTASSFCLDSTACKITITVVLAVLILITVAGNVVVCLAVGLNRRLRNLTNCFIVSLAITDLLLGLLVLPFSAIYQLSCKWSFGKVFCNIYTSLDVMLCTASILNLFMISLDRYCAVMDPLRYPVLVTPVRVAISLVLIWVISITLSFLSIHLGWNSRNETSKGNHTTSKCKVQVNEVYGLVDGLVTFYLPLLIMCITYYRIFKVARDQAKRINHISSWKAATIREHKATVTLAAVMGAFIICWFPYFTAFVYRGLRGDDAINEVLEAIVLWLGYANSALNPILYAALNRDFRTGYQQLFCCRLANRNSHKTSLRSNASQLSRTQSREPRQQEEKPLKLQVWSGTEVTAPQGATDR

[7] = target: Muscarinic acetylcholine receptor M2 (Homo sapiens, UniProt P08172); experiment: Binding affinity to M2 receptor (unknown origin) assessed as inhibition constant
Chain of Muscarinic acetylcholine receptor M2 (P08172 whole entry): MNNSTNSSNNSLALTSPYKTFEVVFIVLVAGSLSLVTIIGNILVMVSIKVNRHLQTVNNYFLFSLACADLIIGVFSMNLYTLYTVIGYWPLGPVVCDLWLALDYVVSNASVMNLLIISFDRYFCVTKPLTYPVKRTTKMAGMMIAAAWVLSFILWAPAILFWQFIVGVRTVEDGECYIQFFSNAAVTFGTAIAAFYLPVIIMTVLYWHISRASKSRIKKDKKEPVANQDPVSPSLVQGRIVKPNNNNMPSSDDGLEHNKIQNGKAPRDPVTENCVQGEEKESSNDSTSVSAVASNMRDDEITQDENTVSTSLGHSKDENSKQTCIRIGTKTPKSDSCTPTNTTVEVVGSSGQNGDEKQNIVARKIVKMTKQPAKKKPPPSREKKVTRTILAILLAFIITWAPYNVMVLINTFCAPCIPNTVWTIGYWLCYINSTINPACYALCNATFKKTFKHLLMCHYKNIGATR

HCT-116 [8] = experiment: Induction of cell cycle arrest in human HCT-116 cells assessed as accumulation of cells in S phase at 5 uM measured after 24 hrs by propidium iodide staining-based flow cytometric analysis (reference value: 47%); assay type: functional
MIA PaCa-2 [9] = experiment: Upregulation of LC3-B expression in human MIA-PaCa-2 cells measured after 72 hrs; assay type: functional, cell-based; conditions: dose 1-5 µM
HCT-116 [10] = experiment: Induction of apoptosis in human HCT-116 cells assessed as early apoptotic cells at 1.0 uM measured after 48 hrs by Annexin V-Alexa Fluor 488/propidium iodide staining based flow cytometry (reference value: 2.77%); assay type: functional
Histamine H3 receptor = Histamine H3 receptor (Homo sapiens, UniProt Q9Y5N1); experiment: Binding affinity to histamine H3 receptor (unknown origin) assessed as inhibition constant
Chain of Histamine H3 receptor (Q9Y5N1 whole entry): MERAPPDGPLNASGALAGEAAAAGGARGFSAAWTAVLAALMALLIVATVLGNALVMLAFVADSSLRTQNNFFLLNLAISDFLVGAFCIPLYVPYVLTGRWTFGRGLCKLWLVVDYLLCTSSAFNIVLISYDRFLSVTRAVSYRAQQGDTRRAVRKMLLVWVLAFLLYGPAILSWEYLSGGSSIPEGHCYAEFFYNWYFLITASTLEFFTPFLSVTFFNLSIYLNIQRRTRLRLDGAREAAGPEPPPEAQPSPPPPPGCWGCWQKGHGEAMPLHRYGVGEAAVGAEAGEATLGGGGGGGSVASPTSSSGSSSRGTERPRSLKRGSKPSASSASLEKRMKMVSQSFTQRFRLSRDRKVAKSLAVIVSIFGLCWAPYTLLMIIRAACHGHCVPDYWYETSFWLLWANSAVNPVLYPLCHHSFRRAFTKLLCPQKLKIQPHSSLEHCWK

MIA PaCa-2 [11] = experiment: Additive ferroptosis activity in human MIA-PaCa-2 cells at upto 1 uM measured after 7 days in presence of FIN56 by crystal violet staining based analysis; assay type: functional, cell-based; conditions: time 7.0 day
MIA PaCa-2 [12] = experiment: Induction of cell cycle arrest in human MIA PaCa-2 cells assessed as accumulation of cells in S phase at 5 uM measured after 24 hrs by propidium iodide staining-based flow cytometric analysis (reference value: 31%); assay type: functional
cells = conditions: Mus musculus, KPC2, 72 h
[13] = Oral bioavailability in CD-1 mouse plasma at 20 mg/kg; assay type: ADME, organism-based; conditions: in vivo
Panc02 [14] = experiment: Antitumor activity against mouse Panc02 cells xenografted in C57BL/6 mouse model assessed as delayed tumor growth at 60 mg/kg, ip administered daily for 28 days by caliper method; assay type: functional, organism-based; conditions: time 28.0 day
MIA PaCa-2 [15] = experiment: Induction of cell cycle arrest in human MIA PaCa-2 cells assessed as accumulation of cells in G2/M phase at 5 uM measured after 24 hrs by propidium iodide staining-based flow cytometric analysis (reference value: 16%); assay type: functional
HCT-116 [16] = experiment: Induction of apoptosis in human HCT-116 cells assessed as late apoptotic cells at 1.0 uM measured after 48 hrs by Annexin V-Alexa Fluor 488/propidium iodide staining based flow cytometry (reference value: 8.48%); assay type: functional
[17] = target: 5-hydroxytryptamine receptor 2A (Homo sapiens, UniProt P28223); experiment: Binding affinity to 5-HT2A receptor (unknown origin) assessed as inhibition constant
Chain of 5-hydroxytryptamine receptor 2A (P28223 whole entry): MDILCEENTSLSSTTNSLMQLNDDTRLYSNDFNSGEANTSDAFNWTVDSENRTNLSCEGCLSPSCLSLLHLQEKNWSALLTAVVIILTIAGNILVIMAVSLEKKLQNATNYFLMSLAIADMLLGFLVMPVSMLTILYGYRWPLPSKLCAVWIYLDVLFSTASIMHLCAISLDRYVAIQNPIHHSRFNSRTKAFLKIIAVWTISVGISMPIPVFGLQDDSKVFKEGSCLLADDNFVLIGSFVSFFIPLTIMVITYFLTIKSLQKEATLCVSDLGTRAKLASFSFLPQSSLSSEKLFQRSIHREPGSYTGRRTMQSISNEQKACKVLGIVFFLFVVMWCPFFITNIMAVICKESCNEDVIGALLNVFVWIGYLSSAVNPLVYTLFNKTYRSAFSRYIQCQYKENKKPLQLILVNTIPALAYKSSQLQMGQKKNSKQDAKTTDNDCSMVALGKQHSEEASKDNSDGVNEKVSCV

[18] = Cytotoxicity against HEK293 cells measured after 72 hrs by MTT assay; assay type: toxicity, cell-based; conditions: human
HCT-116 [19] = experiment: Induction of cell cycle arrest in human HCT-116 cells assessed as accumulation of cells in G2/M phase at 10 uM measured after 24 hrs by propidium iodide staining-based flow cytometric analysis (reference value: 10%); assay type: functional
MIA PaCa-2 [20] = experiment: Induction of cell cycle arrest in human MIA PaCa-2 cells assessed as accumulation of cells in G2/M phase at 10 uM measured after 24 hrs by propidium iodide staining-based flow cytometric analysis (reference value: 16%); assay type: functional
[21] = Half life in CD-1 mouse plasma at 10 mg/kg, iv; assay type: ADME, organism-based
HCT-116 [22] = experiment: Induction of apoptosis in human HCT-116 cells assessed as necrotic cells at 1.0 uM measured after 48 hrs by Annexin V-Alexa Fluor 488/propidium iodide staining based flow cytometry (reference value: 9.06%); assay type: functional
HCT-116 [23] = experiment: Induction of cell cycle arrest in human HCT-116 cells assessed as accumulation of cells in G2/M phase at 5 uM measured after 24 hrs by propidium iodide staining-based flow cytometric analysis (reference value: 10%); assay type: functional
MIA PaCa-2 [24] = experiment: Synergistic cytotoxicity in human MIA PaCa-2 cells at upto 1 uM measured after 7 days in presence of CI-27 by crystal violet staining based analysis; assay type: functional, cell-based; conditions: time 7.0 day
[25] = Clearance in CD-1 mouse plasma at 10 mg/kg, iv; assay type: ADME, organism-based
HCT-116 [26] = experiment: Induction of apoptosis in human HCT-116 cells assessed as viable cells at 1.0 uM measured after 48 hrs by Annexin V-Alexa Fluor 488/propidium iodide staining based flow cytometry (reference value: 79.69%); assay type: functional; conditions: read-out: Activity
[27] = Half life in CD-1 mouse plasma at 20 mg/kg, po; assay type: ADME, organism-based
HCT-116 [28] = experiment: Induction of cell cycle arrest in human HCT-116 cells assessed as accumulation of cells in G2/M phase at […] measured after 24 hrs by propidium iodide staining-based flow cytometric analysis (reference value: 10%); assay type: functional; conditions: dose 2.5 µM
MIA PaCa-2 [29] = experiment: Upregulation of GRP78 in human MIA PaCa-2 cells at 10 uM measured after 24 hrs by Western blot analysis; assay type: functional, cell-based
[30] = Toxicity in C57BL/6 mouse assessed as effect on body weight at 60 mg/kg, ip measured upto 28 days; assay type: organism-based; conditions: in vivo, 672 h, time < 28 day
[31] = AUC (0 to time of last detectable concentration) in CD-1 mouse plasma at 20 mg/kg, po; assay type: ADME, organism-based; set-up: dose 20 mg/kg, route po
MIA PaCa-2 [32] = experiment: Induction of apoptosis in human MIA PaCa-2 cells assessed as early apoptotic cells at 10.0 uM measured after 48 hrs by Annexin V-Alexa Fluor 488/propidium iodide staining based flow cytometry (reference value: 4.11%); assay type: functional
BXPC-3 = experiment: cells; conditions: Homo sapiens, BXPC-3, 72 h
HCT-116 [33] = experiment: Induction of cell cycle arrest in human HCT-116 cells assessed as accumulation of cells in G0/G1 phase at 5 uM measured after 24 hrs by propidium iodide staining-based flow cytometric analysis (reference value: 43%); assay type: functional
MIA PaCa-2 [34] = experiment: Induction of autophagy in human MIA PaCa-2 cells assessed as upregulation of LC-3 level at 1 to 10 uM measured after 24 hrs; assay type: functional, cell-based; conditions: dose 1-10 µM
D(1A) dopamine receptor = D(1A) dopamine receptor (Homo sapiens, UniProt P21728); experiment: Binding affinity to dopamine D1 receptor (unknown origin) assessed as inhibition constant
Chain of D(1A) dopamine receptor (P21728 whole entry): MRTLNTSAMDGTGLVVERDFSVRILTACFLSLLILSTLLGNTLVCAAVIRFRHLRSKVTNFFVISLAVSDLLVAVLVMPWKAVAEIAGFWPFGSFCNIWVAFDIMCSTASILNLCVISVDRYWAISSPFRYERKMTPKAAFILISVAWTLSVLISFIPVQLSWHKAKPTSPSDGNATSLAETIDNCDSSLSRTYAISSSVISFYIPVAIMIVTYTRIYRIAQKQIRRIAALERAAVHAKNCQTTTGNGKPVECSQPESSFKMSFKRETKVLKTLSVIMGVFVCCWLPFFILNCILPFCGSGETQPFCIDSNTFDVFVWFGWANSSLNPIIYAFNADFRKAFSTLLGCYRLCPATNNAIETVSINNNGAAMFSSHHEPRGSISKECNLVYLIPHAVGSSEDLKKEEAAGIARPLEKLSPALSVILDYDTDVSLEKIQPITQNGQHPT

[35] = Apparent volume of distribution during terminal phase in CD-1 mouse plasma at 20 mg/kg, po; assay type: ADME, organism-based; conditions: read-out: Vz/F

`CCN(CC)CCCC(C)Nc1cnc(C(=O)Nc2ccc(Cl)c3cccnc23)cn1` (stereo not given) showed an Activity (MIA PaCa-2 [1]) of 22.26%, an AUC(0-inf) [2] of 3390 ng·h/mL and an AUC(0-inf) [3] of 2680 ng·h/mL. It also gave a pKi [4] of 7.33, a CL/F [5] of 98.3 mL/min/kg and a pIC50 (Panc02 [6]) of 5.43. The pKi (Histamine H2 receptor) was 4.04, the pKi [7] was 6.17 and the Activity (HCT-116 [8]) was 35%. The Activity (MIA PaCa-2 [9]) was “Dose-Dependent Effect”, the Activity (HCT-116 [10]) was 2.38% and the pKi (Histamine H3 receptor) was 5.93. For the same compound, the Activity (MIA PaCa-2 [11]) was “Active”, the Activity (MIA PaCa-2 [12]) was 22% and the pIC50 (cells) was 5.57. The F [13] was 60%, the Activity (Panc02 [14]) was “Active” and the Activity (MIA PaCa-2 [15]) was 17%. For the same compound, the Activity (HCT-116 [16]) was 9.6%, the pKi [17] was 5.90 and the IC50 at 72 h [18] was 1200 nM. It also gave an Activity (HCT-116 [19]) of 22%, an Activity (MIA PaCa-2 [20]) of 17% and a half-life [21] of 4.7 h. The Activity (HCT-116 [22]) was 9.72%, the Activity (HCT-116 [23]) was 22% and the Activity (MIA PaCa-2 [24]) was “inactive”. The clearance [25] was 62.2 mL/min/kg, the viability at 1 µM (HCT-116 [26]) was 78.3% and the half-life [27] was 6.1 h. The Activity (HCT-116 [28]) was 19%, the Activity (MIA PaCa-2 [29]) was “Active” and the Activity [30] was “Non-Toxic”. The AUC [31] was 3110 ng·h/mL, the Activity (MIA PaCa-2 [32]) was 32.58% and the pIC50 (BXPC-3) was 5.24. For the same compound, the Activity (HCT-116 [33]) was 44%, the Activity (MIA PaCa-2 [34]) was “Active” and the pKi (D(1A) dopamine receptor) was 5.84. It also gave a Vd/F [35] of 51.8 L/kg.
